US20060229355A1, “3.3'-Diindolylmethane compositions inhibit angiogenesis” (priority 2005, published 2006)

What was measured:
[1] = tested on: CDK2; assay: Western blot of G1 cell cycle components in HUVECs: CDK2; type: cell-based, human; details: 25 μM DIM
Source text: (§1) DIM down-regulates CDK2 and CDK6, and up-regulates CDK inhibitor p27^Kip1 in HUVECs. […] To examine this possibility, the expressions of G1 cell cycle components were investigated by Western blot analysis.

[2] = tested on: neovascularization of Matrigel plugs; assay: Matrigel plug angiogenesis assay (hemoglobin content); type: in vivo, C57BL/6 mice; details: 5 mg/kg s.c., from five days before Matrigel inoculation and 2 more weeks
Procedure: Matrigel plug angiogenesis assay. In vivo angiogenesis assays were performed on female C57BL/6 mice as described before. Mice were acclimated to semi-purified phytoestrogen-free AIN-76 ad libitum for 7 days prior to the study and randomly grouped (5/group). DMSO vehicle or DIM at 5 mg/kg was injected s.c. five days before Matrigel inoculation. Heparin (64 Unit/mL) and aFGF (100 ng/mL) were gently mixed with cold liquid Matrigel at 4° C. The Matrigel solution (0.3 ml) was injected into mice s.c. in the bilateral flanks. Animals were treated with DMSO control or DIM for 2 more weeks and terminated by CO2 inhalation. The gels were surgically removed and vascularization of Matrigel plugs was quantified by measuring hemoglobin content using Drabkin Reagent kit 525. DIM reduces in vivo angiogenesis. Using a rodent Matrigel plug angiogenesis assay, we next investigated whether DIM affects neovascularization in vivo. Matrigel is a urea extract of Engelbreth-Holm-Swarm (EHS) tumor, which contains laminin, collagen IV, heparan sulfate proteoglycan, and several growth factors, all of which are present in the authentic basement membrane of solid tumors. When injected subcutaneously into rodents, Matrigel forms a solid “plug” beneath the skin. The hemoglobin content in the Matrigel parallels blood vessels development in the gel, thereby allowing quantitation. […]

[3] = tested on: CDK6; assay: Western blot of G1 cell cycle components in HUVECs: CDK6; type: cell-based, human; details: 25 μM DIM
Source text: as §1

[4] = tested on: HUVECs; assay: Tube formation assay on Matrigel; type: cell-based, human; details: 24 h pre-treatment, 10 μM DIM, 3-h incubation
Procedure: Tube formation assay. Endothelial cells plated onto a gel of basement membrane protein rapidly organize into multicellular tube-like structures [12; 13]. Twelve-well cell culture plates coated with Matrigel were ordered from BD-Discovery Labware and assay was performed according to the manufacturer's instruction. Briefly, Matrigel-coated 12-well plates were allowed to solidify at 37° C. for 1 h. Endothelial cells pre-treated with 0, 10, or 25 μM DIM for 24 h were trypsinized and 6×10^4 cells were added per well in 1 mL medium. Cell viability was determined by trypan blue exclusion stain before seeding. DIM treatments continued for the rest of the assay. Tube formation was observed periodically over time under a phase contrast microscope, and representative pictures were taken at 3 h and 24 h. In a further assay of angiogenesis, we examined the effect of DIM on HUVEC tube formation in culture. Capillary formation on Matrigel is a process that requires cell-matrix interaction. For the assay, HUVECs were pre-treated without or with 10 or 25 μM of DIM for 24 h and then seeded on a thin layer of Matrigel. Capillary tube structure formation was obvious at 3 h of incubation and was almost completed at 24 h in the control medium.

[5] = tested on: HUVECs; assay: Wound migration assay; type: cell-based; details: Homo sapiens, HUVEC; 25 μM DIM, 18 h incubation; read-out: number of cells migrating across the wound, % of control
Procedure: Wound migration assay. Migration was assessed using an in vitro wound assay. One hundred thousands cells were seeded into two 12-well cell culture plates and cultured in EGM-MV BulletKit to confluency. A scrape was made in the center of the cell monolayers with a sterile pipette tip to create a gap of constant width. Cellular debris was removed by gently washing with PBS. The initial images of the wounds were captured under phase contrast microscopy and the wounded monolayers were incubated further for 18 h in fresh EGM-MV BulletKit medium in the presence of DMSO or DIM of various concentrations (5, 10, or 25 μM). Pictures were taken with a Nikon Coolpix990 digital camera connected to the Nikon Eclipse TS 100 microscope at a 100× magnification. To quantify the migration, photographs of the initial wounded monolayers were compared with the corresponding images of cells at the end of the incubation. […] Cells that migrated across the lines were counted. All quantification were done on full-size images with the weight of artificial lines negligible compared to the size of the cell body. At least 5 fields from each triplicate treatment were counted. […] To quantify the migration, artificial lines fitting the cutting edges were drawn on pictures of the original wounded cells and overlaid on images of cells after incubation. Cells that migrated across the lines were counted. […]

[6] = Toxicity observations in MCF-7 xenograft study (feed intake, body weight, organ weights); type: in vivo, athymic (nu/nu) mice; details: 5 mg/kg s.c. five times weekly
Procedure: (§2) II. Antiangiogenic DIM inhibits human breast carcinoma in xenograft model. Twenty female athymic (nu/nu) mice were acclimated to semi-purified phytoestrogen-free AIN-76 ad libitum for 7 days prior to the study. They were implanted with a 60-d release 0.72 mg estradiol pellet in the subscapular region. Mice were then inoculated s.c. in the bilateral flanks with 0.1 mL Matrigel containing 3×10^6 MCF-7 human breast cancer cells and randomly grouped (10/group) to receive s.c. injections of either 5 mg/kg DIM or DMSO in a PBS vehicle, five times weekly. Feed intake, body weight were measured weekly and palpable tumor diameter were measured twice per week. Tumor volumes were calculated as: (π/6)×[length(mm)×width^2(mm)] [15]. The experiment was terminated at 34 days. All animals were killed by CO2 asphyxiation.
(§3) DIM inhibits the growth of transplanted MCF-7 human breast carcinoma cells. Since we observed an inhibition of in vivo angiogenesis by DIM in the Matrigel plug assay, we determined whether DIM could inhibit the growth of transplanted breast carcinoma cells in female athymic (nu/nu) mice. Mice were injected s.c. with MCF-7 human breast cancer cells in the bilateral flanks. Mice were randomly assigned (10 mice/group) to receive s.c. injection of either DIM at 5 mg/kg dose or vehicle control DMSO in PBS, five times weekly. Feed intake, body weight and palpable tumor diameter were measured twice per week. Feed intake (22.2±1.3 g/wk vs. 22.9±1.0 g/wk) and body weight gain (2.3±0.2 g vs. 2.4±0.2 g) were not altered by DIM administration. […] Tumor volumes were calculated as: (π/6)×[length(mm)×width^2(mm^2)].

[7] = tested on: HUVECs; assay: Cell invasion assay (Matrigel-coated transwell Boyden chamber); type: cell-based, human
Procedure: Cell invasion assay. Invasion assays were carried out using modified transwell Boyden chamber system. Chambers were assembled using 8 μm-pore BD Falcon transwell inserts as upper chambers, and the 12-well plates as lower chambers. Cell culture inserts were coated with 10 μl/insert Matrigel. Coated inserts were left to dry overnight in a laminar flow fume hood and then rehydrated with DMEM supplemented with 0.1% BSA for 1 h at 37° C. Rehydrated Matrigel wells were washed with the same medium. HUVECs were harvested by trypsin/EDTA and resuspended in 0.1% BSA/DMEM. Medium containing 5% FBS was applied to the lower chamber as chemoattractant, then cells were seeded at 1.5×10^5 cells/insert in the presence of 0, 5, 10 or 25 μM DIM and incubated for 2 h at 37° C. and 5% CO2. At the end of the incubation, the cells in the upper chamber were removed with cotton swabs and cells that traversed the Matrigel to the lower surface of the insert were fixed with 10% formalin/PBS and stained with crystal violet in 10% formalin/PBS. Cells that migrated to the lower surface of the insert were counted under the light microscope at a magnification of 40×. Each treatment was in triplicate. The quantification of the invasive cells in the presence of DIM was expressed as the percentage of the quantity of invasive cells under control conditions (DMSO). We next conducted a cell invasion assay to examine the effect of DIM on HUVEC movement through a simulated extracellular matrix. In a modified Boyden chamber assay, the transwell inserts were coated with a thin layer of Matrigel and inserted into wells containing 5% FBS medium as a chemoattractant. As a negative control, serum-free medium containing 0.1% BSA was used in the lower chamber wells. Cells which transversed the Matrigel and migrated to the lower part of the insert were photographed and quantified. […] In response to 5% FBS, however, HUVECs traversed the Matrigel and migrated to the lower chamber. The invasion of HUVECs was decreased by DIM in a concentration-dependent manner, in which DIM at 25 μM decreased cell invasion to 52% of the control.

[8] = tested on: MCF-7 human breast cancer cells; assay: MCF-7 human breast carcinoma xenograft in athymic mice; type: in vivo, athymic (nu/nu) mice; details: 5 mg/kg s.c. five times weekly
Procedure: as §2, §3

[9] = tested on: p27^Kip1; assay: Western blot of G1 cell cycle components in HUVECs: p27Kip1; type: cell-based, human; details: 25 μM DIM
Source text: as §1

[10] = tested on: HUVECs; assay: Cell proliferation assay (HUVEC cell counting); type: cell-based, human
Procedure: Antiangiogenic effects of the DIM analogs are pre-screened with vascular endothelial cells proliferation assays. […] Cells were then treated by 0, 2, 5, 10, or 25 μM DIM candidate at 24, 48, and 72 h. DIM was dissolved in DMSO as 1000× stock solutions for each treatment. Cell numbers were assessed at various time points by trypsinization and counting with a Coulter Z1 cell counter, as described below in Example I below. Cell proliferation assay. To determine endothelial cell proliferation, approximately 8×10^4 HUVECs were seeded in 6-well plates and allowed to grow for 24 h. Cells were then treated by 0, 2, 5, 10, or 25 μM DIM at 24, 48, and 72 h. DIM was dissolved in DMSO as 1000× stock solutions for each treatment. Cell numbers were assessed at various time points by trypsinization and counting with a Coulter Z1 cell counter. DIM inhibits proliferation, invasion, migration and tube formation of HUVECs. […] First, DIM's effect on proliferation of human vascular endothelial cell (HUVECs) was examined. HUVECs were treated with 0, 2, 5, 10, or 25 μM DIM for 24 to 72 h. DIM inhibited HUVECs proliferation in a concentration- and time-dependent manner, with up to 70% inhibition of proliferation at 72 h treatment with 25 μM DIM.

[11] = tested on: p21^Waf1/CiP1; assay: Western blot of G1 cell cycle components in HUVECs: p21Waf1/Cip1; type: cell-based, human; details: DIM treatment
Source text: as §1

[12] = tested on: HUVECs; assay: Cell cycle analysis by flow cytometry; type: cell-based, human; details: 24 h
Procedure: DIM induces a G1 cell cycle arrest in HUVECs. To further characterize the antiproliferative activity of DIM in HUVECs, we examined the effects of this indole on cell cycle regulation. For the cell cycle studies, HUVECs treated with vehicle control or 25 μM DIM for 24 h were analyzed by flow cytometry as described above.

[13] = tested on: CDK4; assay: Western blot of G1 cell cycle components in HUVECs: CDK4; type: cell-based, human; details: DIM treatment
Source text: as §1

[14] = tested on: cyclin E; assay: Western blot of G1 cell cycle components in HUVECs: cyclin E; type: cell-based, human; details: DIM treatment
Source text: as §1

c1ccc2c(Cc3c[nH]c4ccccc34)c[nH]c2c1 [DIM, 3,3′-Diindolylmethane]
CDK2 expression, % of the control [1]: 35%
reduction of neovascularization compared to controls (hemoglobin content) [2]: up to 76%
CDK6 expression, % of the control [3]: 40%
capillary tube structure formation (in words) [4]: decreased ability to extend and differentiate into tube-like structures
activity at 25 µM [5]: 40%
body weight gain [6]: not altered
feed intake [6]: not altered
relative organ weights [6]: not significantly affected
cell invasion (in words) ([7]; 5 μM DIM): trend of decreased cell invasion
cell invasion (in words) ([7]; 10 μM DIM): more significant effect
cell invasion, % of the control ([7]; 25 μM DIM, 5% FBS chemoattractant, 2 h): 52%
reduction of tumor growth ([8]; after 3 weeks (P=0.22)): 40%
final average tumor volume ([8]; day 34, control 3121±554.5 mm^3): 1125±434 mm^3
reduction of tumor growth ([8]; termination at day 34 (P<0.05)): 64%
p27Kip1 expression, fold of the control [9]: ~3.5 fold
inhibition of proliferation (in words) ([10]; 5 μM DIM, 72 h): Significant inhibition of proliferation
inhibition at 25 µM ([10]; Homo sapiens, HUVEC, 25 μM DIM, 72 h treatment): ≤ 70%
cell survival and viability (trypan blue exclusion) ([10]; conditions of the proliferation assay, 0-25 μM, 24-72 h): not obviously affected
level of p21Waf1/Cip1 [11]: not significantly affected
cell population in G1 phase (in words) ([12]; 5 μM DIM, asynchronous growing cells): increased the cell population in G1 phase
proportion of S phase cells ([12]; 25 μM DIM, vehicle control 15.2±1.3): 2.4±0.9%
proportion of cells in the G1 phase ([12]; 25 μM DIM, vehicle control 71.8±2.5%): 85.7±2.9%
level of CDK4 [13]: not significantly affected
level of cyclin E [14]: not significantly affected
